Assay results from patent US4363805A, “Aminodesoxy-1.4;3.6-dianhydrohexitol nitrates and pharmaceutical composition” (Firma Willmar Schwabe, priority 1980, dated 1982).

Columns and labels:
[1] = tested on: isolated guinea pig hearts; assay: Experiments on Langendorff hearts (coronary flowthrough, inotropism, frequency); conditions: Cavia porcellus, read-out: flowthrough, percentage change with regard to the initial value
Method: After reaching the stationary state in the 30th minute, the hearts were each perfused with 50 ml. tyrode solution with a content of test substance of, in each case, 25 μg./ml. Each test substance was tested on 3-6 hearts.
In each case, there was measured the inotropism, the flowthrough and the frequency, whereby the values given in Table I are average values of the percentage changes in comparison with the initial values.

narcotised guinea pigs = assay: Blood pressure experiments on guinea pigs, i.v.; assay type: in vivo, guinea pig
[2] = Acute toxicity, intravenous, mice; assay type: in vivo; conditions: mouse, in vivo; intravenous, within 24 hours; read-out: Evaluated LD50-range
female NMRI-albino mice = assay: Acute toxicity, intravenous, mice; assay type: in vivo; conditions: within 24 hours
mongrel cats = assay: Inotropic and heart-circulatory effectiveness on narcotised cats, intravenous; assay type: in vivo, cat; conditions: 6 animals
[3] = 0.25 mg/kg i.v., before administration

O=[N+]([O-])O[C@@H]1CO[C@H]2[C@@H]1OC[C@@H]2O [ISMN, 1.4;3.6-dianhydro-D-glucitol 2-nitrate, reference compound]
activation at 25 µg/mL [1]: 9.11% | blood pressure Δ (narcotised guinea pigs; 0.25 mg/kg i.v.): -3.70 mm.Hg | blood pressure Δ (narcotised guinea pigs; 1.00 mg/kg i.v.): -6.30 mm.Hg | blood pressure Δ (narcotised guinea pigs; 2.50 mg/kg i.v.): -10.90 mm.Hg

O=[N+]([O-])O[C@H]1CO[C@H]2[C@@H]1OC[C@@H]2NCCOc1ccccc1 [Example 35, 5-(2-Phenoxyethylamino)-5-desoxy-1.4;3.6-dianhydro-L-iditol 2-nitrate]
activation at 25 µg/mL [1]: 34% | LD50 at 24 h [2]: ≥ 100 mg/kg | Frequency of death (female NMRI-albino mice; 100 mg/kg i.v.): 2/6 | Frequency of death (female NMRI-albino mice; 200 mg/kg i.v.): 3/3

O=[N+]([O-])O[C@H]1CO[C@H]2[C@@H]1OC[C@@H]2NCc1ccccc1 [Example 25, 5-Benzylamino-5-desoxy-1.4;3.6-dianhydro-L-iditol 2-nitrate]
activation at 25 µg/mL [1]: 47.8% | LD50 at 24 h [2]: 100 to 200 mg/kg | Frequency of death (female NMRI-albino mice; 100 mg/kg i.v.): 0/3 | Frequency of death (female NMRI-albino mice; 200 mg/kg i.v.): 6/6

CN(C)[C@H]1CO[C@H]2[C@@H]1OC[C@@H]2O[N+](=O)[O-] [12 b]
activation at 25 µg/mL [1]: 16.2% | LD50 at 24 h [2]: > 200 mg/kg | Frequency of death (female NMRI-albino mice; 200 mg/kg i.v.): 0/3

CN(CCCOc1ccccc1)[C@H]1CO[C@H]2[C@@H]1OC[C@@H]2O[N+](=O)[O-] [Example 34, 5-[N-Methyl-N-(3-phenoxypropyl)-amino]-5-desoxy-1.4;3.6-dianhydro-L-iditol 2-nitrate]
activation at 25 µg/mL [1]: 50% | blood pressure before (mongrel cats; [3]): 95.2 mm.Hg | dp/dt (inotropism) before (mongrel cats; [3]): 5333 mm.Hg/sec | heart frequency before (mongrel cats; [3]): 180.3 min⁻¹ | blood pressure WD (mongrel cats; 0.25 mg/kg i.v.): 4.1 min | blood pressure after (mongrel cats; 0.25 mg/kg i.v.): 73.7 mm.Hg | blood pressure Δ (mongrel cats; 0.25 mg/kg i.v.): -21.5 mm.Hg | dp/dt (inotropism) after (mongrel cats; 0.25 mg/kg i.v.): 4650 mm.Hg/sec | dp/dt (inotropism) Δ (mongrel cats; 0.25 mg/kg i.v.): -683 mm.Hg/sec | dp/dt WD (mongrel cats; 0.25 mg/kg i.v.): 2.8 min | heart frequency after (mongrel cats; 0.25 mg/kg i.v.): 179.3 min⁻¹ | heart frequency Δ (mongrel cats; 0.25 mg/kg i.v.): -1.0 min⁻¹ | blood pressure WD (mongrel cats; 0.50 mg/kg i.v.): 4.2 min | blood pressure after (mongrel cats; 0.50 mg/kg i.v.): 74.8 mm.Hg | blood pressure Δ (mongrel cats; 0.50 mg/kg i.v.): -24.2 mm.Hg | dp/dt (inotropism) after (mongrel cats; 0.50 mg/kg i.v.): 4683 mm.Hg/sec | dp/dt (inotropism) Δ (mongrel cats; 0.50 mg/kg i.v.): -817 mm.Hg/sec | dp/dt WD (mongrel cats; 0.50 mg/kg i.v.): 3,7 min | heart frequency after (mongrel cats; 0.50 mg/kg i.v.): 178.0 min⁻¹ | heart frequency Δ (mongrel cats; 0.50 mg/kg i.v.): -1.0 min⁻¹ | blood pressure WD (mongrel cats; 1.00 mg/kg i.v.): 6.5 min | blood pressure after (mongrel cats; 1.00 mg/kg i.v.): 74.5 mm.Hg | blood pressure Δ (mongrel cats; 1.00 mg/kg i.v.): -30.8 mm.Hg | dp/dt (inotropism) after (mongrel cats; 1.00 mg/kg i.v.): 4400 mm.Hg/sec | dp/dt (inotropism) Δ (mongrel cats; 1.00 mg/kg i.v.): -1033 mm.Hg/sec | dp/dt WD (mongrel cats; 1.00 mg/kg i.v.): 4.2 min | heart frequency after (mongrel cats; 1.00 mg/kg i.v.): 172.0 min⁻¹ | heart frequency Δ (mongrel cats; 1.00 mg/kg i.v.): -3.0 min⁻¹ | blood pressure WD (mongrel cats; 2.50 mg/kg i.v.): > 9.0 min | blood pressure after (mongrel cats; 2.50 mg/kg i.v.): 69.2 mm.Hg | blood pressure Δ (mongrel cats; 2.50 mg/kg i.v.): -39.7 mm.Hg | dp/dt (inotropism) after (mongrel cats; 2.50 mg/kg i.v.): 3850 mm.Hg/sec | dp/dt (inotropism) Δ (mongrel cats; 2.50 mg/kg i.v.): -1450 mm.Hg/sec | dp/dt WD (mongrel cats; 2.50 mg/kg i.v.): > 6.5 min | heart frequency after (mongrel cats; 2.50 mg/kg i.v.): 158.0 min⁻¹ | heart frequency Δ (mongrel cats; 2.50 mg/kg i.v.): -15.0 min⁻¹

CCN(CC)[C@H]1CO[C@H]2[C@@H]1OC[C@@H]2O[N+](=O)[O-] [13 b]
activation at 25 µg/mL [1]: 9.05% | LD50 at 24 h [2]: 100 to 200 mg/kg | Frequency of death (female NMRI-albino mice; 100 mg/kg i.v.): 0/3 | Frequency of death (female NMRI-albino mice; 200 mg/kg i.v.): 6/6
